Measured values as given in ChEMBL document CHEMBL1201862, “PubChem BioAssay data set” (2004).
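Cultured in 96-well plates, cells were exposed to test compound for 48 hours across five concentrations. Abbreviation: GI50, concentration required for 50% inhibition of growth.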 The source made the active and inactive calls. No stated cut-off is given here; in the data, active = GI50 up to about 1.1 µM and inactive = higher.

Columns and labels:
Assay in all cases: NCI tumour cell line growth inhibition, 48 h
786-0 = tested on: 786-0
A498 = tested on: A498
A549 = tested on: A549
ACHN = tested on: ACHN
CAKI-1 = tested on: CAKI-1
CCRF-CEM = tested on: CCRF-CEM
COLO 205 = tested on: COLO 205
DLD-1 = tested on: DLD-1
DMS-114 = tested on: DMS-114
EKVX = tested on: EKVX
HCC 2998 = tested on: HCC 2998
HCT-116 = tested on: HCT-116
HCT-15 = tested on: HCT-15
HL-60 = tested on: HL-60
HOP-62 = tested on: HOP-62
HOP-92 = tested on: HOP-92
HT-29 = tested on: HT-29
IGROV-1 = tested on: IGROV-1
K562 = tested on: K562
KM-20L2 = tested on: KM-20L2
KM12 = tested on: KM12
LOX IMVI = tested on: LOX IMVI
LXFL 529 = tested on: LXFL 529
M14 = tested on: M14
M19-MEL = tested on: M19-MEL
MOLT-4 = tested on: MOLT-4
Malme-3M = tested on: Malme-3M
NCI-H226 = tested on: NCI-H226
NCI-H23 = tested on: NCI-H23
NCI-H460 = tested on: NCI-H460
NCI-H522 = tested on: NCI-H522
OVCAR-3 = tested on: OVCAR-3
OVCAR-4 = tested on: OVCAR-4
OVCAR-5 = tested on: OVCAR-5
OVCAR-8 = tested on: OVCAR-8
RPMI-8226 = tested on: RPMI-8226
SF-268 = tested on: SF-268
SF-295 = tested on: SF-295
SF-539 = tested on: SF-539
SK-MEL-28 = tested on: SK-MEL-28
SK-MEL-2 = tested on: SK-MEL-2
SK-MEL-5 = tested on: SK-MEL-5
SK-OV-3 = tested on: SK-OV-3
SN12C = tested on: SN12C
SNB-19 = tested on: SNB-19
SNB-78 = tested on: SNB-78
SR = tested on: SR
SW-620 = tested on: SW-620
TK-10 = tested on: TK-10
U-251 = tested on: U-251
UACC-257 = tested on: UACC-257
UACC-62 = tested on: UACC-62
UO-31 = tested on: UO-31
XF498 = tested on: XF498

`Cc1cc(-c2ccccc2)nc(Nc2nc3ccccc3o2)n1` was tested, and the GI50 (786-0) was > 100 µM (inactive), the GI50 (A498) was > 100 µM (inactive) and the GI50 (A549) was > 100 µM (inactive). For the same compound, the GI50 (ACHN) was > 100 µM (inactive), the GI50 (CAKI-1) was > 100 µM (inactive) and the GI50 (CCRF-CEM) was 74 µM (inactive). The GI50 (COLO 205) was > 100 µM (inactive), the GI50 (DLD-1) was > 100 µM (inactive) and the GI50 (DMS-114) was > 100 µM (inactive). The GI50 (EKVX) was > 100 µM (inactive), the GI50 (HCC 2998) was > 100 µM (inactive) and the GI50 (HCT-116) was > 100 µM (inactive). The GI50 (HCT-15) was over 100 µM, the GI50 (HL-60) was > 100 µM (inactive) and the GI50 (HOP-62) was > 100 µM (inactive). For the same compound, the GI50 (HOP-92) was 89.3 µM (inactive), the GI50 (HT-29) was > 100 µM (inactive) and the GI50 (IGROV-1) was > 100 µM (inactive). For the same compound, the GI50 (K562) was > 100 µM (inactive), the GI50 (KM-20L2) was > 100 µM (inactive) and the GI50 (KM12) was > 100 µM (inactive). For the same compound, the GI50 (LOX IMVI) was > 100 µM (inactive), the GI50 (LXFL 529) was > 100 µM (inactive) and the GI50 (M14) was > 100 µM (inactive). For the same compound, the GI50 (M19-MEL) was > 100 µM (inactive), the GI50 (MOLT-4) was > 100 µM (inactive) and the GI50 (Malme-3M) was > 100 µM (inactive). The GI50 (NCI-H226) was > 100 µM (inactive), the GI50 (NCI-H23) was > 100 µM (inactive) and the GI50 (NCI-H460) was > 100 µM (inactive). For the same compound, the GI50 (NCI-H522) was > 100 µM (inactive), the GI50 (OVCAR-3) was > 100 µM (inactive) and the GI50 (OVCAR-4) was > 100 µM (inactive). The GI50 (OVCAR-5) was > 100 µM (inactive), the GI50 (OVCAR-8) was > 100 µM (inactive) and the GI50 (RPMI-8226) was > 100 µM (inactive). For the same compound, the GI50 (SF-268) was > 100 µM (inactive), the GI50 (SF-295) was > 100 µM (inactive) and the GI50 (SF-539) was > 100 µM (inactive). For the same compound, the GI50 (SK-MEL-28) was > 100 µM (inactive), the GI50 (SK-MEL-2) was > 100 µM (inactive) and the GI50 (SK-MEL-5) was > 100 µM (inactive). For the same compound, the GI50 (SK-OV-3) was > 100 µM (inactive), the GI50 (SN12C) was > 100 µM (inactive) and the GI50 (SNB-19) was > 100 µM (inactive). For the same compound, the GI50 (SNB-78) was > 100 µM (inactive), the GI50 (SR) was > 100 µM (inactive) and the GI50 (SW-620) was > 100 µM (inactive). For the same compound, the GI50 (TK-10) was > 100 µM (inactive), the GI50 (U-251) was > 100 µM (inactive) and the GI50 (UACC-257) was > 100 µM (inactive). For the same compound, the GI50 (UACC-62) was > 100 µM (inactive), the GI50 (UO-31) was > 100 µM (inactive) and the GI50 (XF498) was > 100 µM (inactive).
